{"source": "patent US20070038384A1", "about": "“Devices and assays for monitoring/measuring cellular dynamics to create subject profiles from primary cells” (priority 2003, published 2007)", "assay_type_in_all_cases": "cell-based", "key": {"[1]": {"test_system": "MS1 (T antigen-immortalized endothelial cells)", "assay": "Farnesyl transferase inhibition, cell motility assay in MS1", "conditions": "FTI-277 10 mm, time zero and four hours, versus control", "experimental": "(§1) Using standard protocols, MS1 (T antigen-immortalized endothelial cells, ATCC) and SVR (H-ras-overexpressing derivative of MS1, ATCC) were plated into macrowells at densities of 12×10^3 and 6×10^3 cells/cm^2, respectively, in DMEM/5% fetal bovine serum. Unattached cells were washed off after 1 hour, and the cells were replenished with fresh media. To the media was also added farnesyl transferase inhibitor (FTI-277, Calbiochem) to concentration of […]. Cells were cultured overnight under fresh media in an incubator at 37° C. and 5% CO2. At the start of experiment, the stencil/first layer was removed after first on the support to allow cell migration. At different time points (time zero and time four hours) images were taken and analyzed for effects of FTI-277 on cell motility. FIG. 21 contains the pictorial results of an assay showing farnesyl transferase inhibition in MS1 and SVR cells."}, "[2]": {"test_system": "SVR (H-ras-overexpressing derivative of MS1)", "assay": "Farnesyl transferase inhibition, cell motility assay in SVR", "conditions": "SVR cells, FTI-277 10 mm, time zero and four hours, versus control", "experimental": "as §1"}, "[3]": {"test_system": "HK-2 (proximal tubule cells from human kidney)", "assay": "Inhibition of cell motility of renal cells via MMP inhibition, HK-2", "conditions": "HK-2, various concentrations", "experimental": "(§2) Two renal cell lines were used to study the effect of matrix metalloproteinase (MMP) inhibition on cell motility. Standard protocols were used to plate 100 769-P cells (renal carcinoma, purchased from ATCC) and HK-2 (proximal tubule cells from human kidney, from ATCC) in qualitative cell migration assay plate.\n(§3) After allowing the cells to attach and spread for 8 hours, the stencil and the first layer were removed and MMP inhibitor (GM6001, Calbiochem) was added at various concentrations."}, "[4]": {"test_system": "769-P cells (renal carcinoma)", "assay": "Inhibition of cell motility of renal cells via MMP inhibition, 769-P", "conditions": "various concentrations", "experimental": "as §2, §3"}, "[5]": {"test_system": "Human microvasular endothelial cells from lung (HMVEC-L)", "assay": "Microtubule experiments, cell motility/patterning assay", "conditions": "circular micro-orifice, versus control; agents 10 mg/ml in Example 8", "experimental": "Alternatively, the test agent can be added before the cells have grown to confluency, i.e. the test agent is added to the cells before being patterned through the micro-orifices 300. If the test agent has no effect on cell motility, the cells will spread and achieve the shape of the micro-orifice 300. In FIGS. 16 and 17, a micro-orifice 300 is circular in shape. In the left column of FIGS. 16 and 17 are the control panel, which illustrate the cells having grown to a confluent circular pattern.\nA first layer 150 having multiple orifices was applied to a support 140. The orifices ([…]) were rendered inert to the adsorption of proteins and the adhesion of cells using the standard procedures described in earlier disclosures: silanes terminated with ethylene glycol groups were reacted covalently with the surface of the PDMS devices. The stencil was washed three times with PBS, and vacuum was applied for two minutes to remove air bubbles. Human microvasular endothelial cells from lung (HMVEC-L, Clonetics/Biowhittaker), were seeded into the macro-wells of the stencil at a density of 5×10^3 cells/cm2 into the dishes in growth medium (EGM, Clonetics/Biowhittaker), and washed with fresh medium after an initial attachment period of 30 minutes to one hour. After an overnight incubation in the membranes, cells were treated with the following microtubule-disrupting agents: nocodazole (10 mg/ml), colchicine (10 mg/ml), vinblastine (10 mg/ml), or paclitaxel (10 mg/ml). Control cells were left untreated. Two different experiments were then performed. In the first experiment, cells were treated with the compounds while maintained within the macro-wells of the stencil. After two hours of treatment, the cells were imaged, the stencil was peeled off, and the cells were fixed with cold methanol (−20° C.) for ten minutes and washed three times with PBS. Immunofluorescence staining was performed using a monoclonal antibody to alpha-tubulin (1:100 dilution, DM1a, Sigma), followed by a FITC-conjugated goat anti-mouse antibody (25 mg/ml, Rockland Immunochemicals) and DAPI (3 mg/ml, Sigma) to stain the nucleus. Stained cells were mounted under a glass coverslip with Fluoromount G (Southern Biotechnology Associates) and imaged in a Zeiss fluorescence microscope.\nIn the second experiment, the stencil was peeled at the time of compound addition. After two hours of treatment, one set of samples was fixed and stained as described above. Another set of samples was left in the treatment compound and imaged over time, to monitor cell motility. Images were taken at 0, 2, 4, 8, and 24 hours. Cell motility was determined by taking the average diameter of the micro-regions, using ImageProPlus imaging software."}, "NIH-3T3 fibroblast cells": {"test_system": "NIH-3T3 fibroblast cells", "assay": "Cell migration/motility assay, 3T3/TAXOL", "conditions": "2 hours and 5 hours after removal of first layer, versus control cells", "excerpt": "The cell migration/motility assay of the present invention allows one to study the effect of test agents and others both on cell motility and on cell shape. For example, cells may be patterned through micro-orifices, such as micro-orifices 300, of the first layer 150. The cells are allowed to attach to the support 140 and to grow to confluence. The walls of the micro-orifice 300 constrain the cell(s) and the cells take on the shape of the micro-orifice 300, e.g., circular. A test agent is applied through the micro-orifices 300 and is allowed to contact the cells. The first layer 150 is removed and the cells are observed. If the test agent affects cell movement, the cell will be “stuck” in place as it was patterned and may not change shape, i.e., it will remain circular if the patterning member had circular orifices. […] FIG. 15(b) is a graph of the effect of various concentrations of taxol on cell movement as performed by a cell migration/motility assay of the present invention.\nMacro-wells orifices of a stencil engaged with a support were filled with PBS and a vacuum was applied for two minutes to remove air bubbles. NIH-3T3 fibroblast cells (prelabeled with green cell tracker, CMFDA, Molecular Probes) were collected in DMEM/10% bovine calf serum and plated in the macro-wells at a concentration of 2×10^4 cells/cm2. After one hour, unadhered cells were washed off with fresh medium. […]"}, "endothelial cells": {"test_system": "endothelial cells", "assay": "Cell motility assay using endothelial cells with agonists and antagonists (FIG. 25)", "conditions": "FIG. 25A", "experimental": "FIG. 25 depicts a particular cell motility assay using endothelial cells and agonists and antagonists of such cells. […] In FIG. 25B, the concentration of VEGF is fixed. An antibody to VEGF is added in various concentrations. […] When an inhibitor to the VEGF receptor is added, the cells migrate at a such slower rate as depicted in FIG. 25C. […] Normally enzyme inhibition screens involve proteins and their substrates and not cells. FIG. 25D depicts enzyme inhibition screens in a cell based context."}}}
{"molecule": "COC(=O)[C@H](CCSC)NC(=O)c1ccc(NC[C@@H](N)CS)cc1-c1ccccc1", "note": "[FTI-277]", "values": [{"measurement": "cell migration away from original starting positions", "setting": "[1]", "result": "control cells are shown to have migrated further away from their original starting positions than the cells treated with FTI"}, {"measurement": "cell migration away from original starting positions", "setting": "[2]", "result": "control cells are shown to have migrated further away from their original starting positions than the cells treated with FTI"}]}
{"molecule": "CNC(=O)[C@H](Cc1c[nH]c2ccccc12)NC(=O)[C@@H](CC(=O)NO)CC(C)C", "note": "[GM6001]", "values": [{"measurement": "cell motility", "setting": "[3]", "result": "no effect"}, {"measurement": "cell motility", "setting": "[4]", "result": "reduces cell motility"}]}
{"molecule": "COc1cc2c(c(OC)c1OC)-c1ccc(OC)c(=O)cc1[C@@H](NC(C)=O)CC2", "note": "[colchicine]", "values": [{"measurement": "cellular movement / achieving circular confluent pattern", "setting": "[5]", "result": "cellular movement arrested"}]}
{"molecule": "COC(=O)Nc1nc2ccc(C(=O)c3cccs3)cc2[nH]1", "note": "[nocodazole]", "values": [{"measurement": "cellular movement / achieving circular confluent pattern", "setting": "[5]", "result": "cellular movement arrested"}]}
{"molecule": "CC(=O)O[C@H]1C(=O)[C@@]2(C)[C@H]([C@H](OC(=O)c3ccccc3)[C@]3(O)C[C@H](OC(=O)[C@H](O)[C@@H](NC(=O)c4ccccc4)c4ccccc4)C(C)=C1C3(C)C)[C@]1(OC(C)=O)CO[C@@H]1C[C@@H]2O", "note": "[taxol, paclitaxel]", "values": [{"measurement": "cellular movement / achieving circular confluent pattern", "setting": "[5]", "result": "cellular movement arrested"}, {"measurement": "cell movement away from original pattern", "setting": "NIH-3T3 fibroblast cells", "result": "retained their original circular pattern"}]}
{"molecule": "CC[C@]1(O)C[C@@H]2CN(CCc3c([nH]c4ccccc34)[C@@](C(=O)OC)(c3cc4c(cc3OC)N(C)[C@H]3[C@@](O)(C(=O)OC)[C@H](OC(C)=O)[C@]5(CC)C=CCN6CC[C@]43[C@@H]65)C2)C1", "note": "[vinblastine]", "values": [{"measurement": "cellular movement / achieving circular confluent pattern", "setting": "[5]", "result": "cellular movement arrested"}]}
{"molecule": "VEGF", "values": [{"measurement": "cell migration", "setting": "endothelial cells", "result": "stimulates cells to migrate"}]}
